Measured values as given in patent publication US6737383B1, “Herbicidal oxadiazolidines” (priority 1999, dated 2004).

What was measured:
wild oat = experiment: Test B pre/postemergence wild oat; type: in vivo, Avena fatua; conditions: for Plant response rating, Wild oats: Rate 250 g/ha
Summary of the method: (§1)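 Test chemicals in a non-phytotoxic solvent mixture with surfactant were sprayed preemergence onto planted seeds and postemergence onto plants 2 to 18 cm tall (1- to 4-leaf stage). After twelve to sixteen days in a greenhouse, injury was visually rated against untreated controls from 0 (no effect) to 10 (complete control).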

bamyardgrass = experiment: Test B flood test barnyardgrass; type: in vivo, Echinochloa crus-galli
Summary of the method: (§2)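 Plants were grown to the 2-leaf stage before treatment with test chemical, then held in a greenhouse for twelve to sixteen days. Injury was visually rated against untreated controls on a 0–10 scale, where 0 is no effect and 10 is complete control.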

duck salad = experiment: Test B flood test duck salad; type: in vivo, Heteranthera limosa
Summary of the method: as §2

purple nutsedge = experiment: Test B pre/postemergence purple nutsedge; type: in vivo, Cyperus rotundus
Summary of the method: as §1

crabgrass = experiment: Test B pre/postemergence crabgrass; type: in vivo, Digitaria sanguinalis
Summary of the method: as §1

surinam grass = experiment: Test B pre/postemergence surinam grass; type: in vivo, Brachiaria decumbens
Summary of the method: as §1

wheat = experiment: Test B pre/postemergence wheat; type: in vivo, Triticum aestivum; conditions: for Plant response rating, Wheat: Rate 250 g/ha
Summary of the method: as §1

bedstraw = experiment: Test B pre/postemergence bedstraw; type: in vivo, Galium aparine
Summary of the method: as §1

soybean = experiment: Test B pre/postemergence soybean; type: in vivo, Glycine max
Summary of the method: as §1

smallflower flatsedge = experiment: Test B flood test smallflower flatsedge; type: in vivo, Cyperus difformis
Summary of the method: as §2

velvetleaf = experiment: Test B pre/postemergence velvetleaf; type: in vivo, Abutilon theophrasti; conditions: for Plant response rating, Velvetleaf: Rate 250 g/ha
Summary of the method: as §1

corn = experiment: Test B pre/postemergence corn; type: in vivo, Zea mays
Summary of the method: as §1

blackgrass = experiment: Test B pre/postemergence blackgrass; type: in vivo, Alopecurus myosuroides
Summary of the method: as §1

sugar beet = experiment: Test B pre/postemergence sugar beet; type: in vivo, Beta vulgaris; conditions: for Plant response rating, Sugarbeets: Rate 250 g/ha
Summary of the method: as §1

rape = experiment: Test B pre/postemergence rape; type: in vivo, Brassica napus
Summary of the method: as §1

rice = experiment: Test B flood test rice; type: in vivo, Oryza sativa
Summary of the method: as §2

cocklebur = experiment: Test B pre/postemergence cocklebur; type: in vivo, Xanthium strumarium
Summary of the method: as §1

[1] = Postemergence, Rate 125 g/ha, scale of 0 to 10 where 0 is no effect and 10 is complete control
[2] = Preemergence, Rate 62 g/ha, scale 0 to 10 (0 no effect, 10 complete control)
[3] = Preemergence, Rate 125 g/ha, 0 is no effect, 10 is complete control
[4] = Preemergence, scale of 0 to 10 where 0 is no effect and 10 is complete control
[5] = Rate 62 g/ha, Postemergence, scale of 0 to 10 where 0 is no effect and 10 is complete control
[6] = Postemergence, scale 0 to 10, 0 is no effect, 10 is complete control
[7] = Rate 500 g/ha, Postemergence, scale 0 to 10, 0 no effect, 10 complete control
[8] = Postemergence, Rate 62 g/ha, scale 0 to 10, 0 is no effect, 10 is complete control
[9] = Rate 500 g/ha, listed under Postemergence (flood test species), scale 0 to 10, 0 no effect, 10 complete control
[10] = flood test, listed under Postemergence, Rate 250 g/ha, scale 0 to 10, 0 no effect, 10 complete control
[11] = Postemergence (flood test species), Rate 125 g/ha, scale of 0 to 10 where 0 is no effect and 10 is complete control
[12] = Rate 62 g/ha, Postemergence section, flood test species, scale of 0 to 10 where 0 is no effect and 10 is complete control
[13] = Postemergence, Rate 250 g/ha, scale 0 to 10, 0 no effect, 10 complete control
[14] = Preemergence, Rate 125 g/ha, scale 0 to 10 (0 no effect, 10 complete control)
[15] = Preemergence, Rate 250 g/ha, scale of 0 to 10 where 0 is no effect and 10 is complete control
[16] = Rate 125 g/ha, Postemergence, scale 0 to 10, 0 no effect, 10 complete control
[17] = Rate 250 g/ha, Postemergence (flood test), scale 0 to 10, 0 is no effect, 10 is complete control

CCc1noc(CC)c1-n1c(=O)on(C(=O)N(c2ccc(F)cc2)C(C)C)c1=O [Compound 102]
2: Corn plant response rating (corn; [7]) | Plant response rating, Blackgrass (blackgrass; [15])
3: Bedstraw plant response rating (bedstraw; [7]) | Velvetleaf plant response rating (velvetleaf; [7])
5: Crabgrass plant response rating (crabgrass; [7])
0: Wild oats plant response rating (wild oat; [1]) | Wild oats plant response rating (wild oat; [2]) | Wild oats plant response rating (0 to 10 scale) (wild oat; [3]) | Plant response rating, Wild oats (wild oat; [4]) | Wild oats plant response rating (wild oat; [5]) | Plant response rating, Wild oats (wild oat; [6]) | Wild oats plant response rating (wild oat; [7]) | Barnyardgrass plant response rating (bamyardgrass; [8]) | Barnyardgrass plant response rating (bamyardgrass; Rate 125 g/ha, Postemergence section (flood test species), scale 0 to 10, 0 no effect, 10 complete control) | Barnyardgrass plant response rating (bamyardgrass; [9]) | Barnyardgrass plant response rating (bamyardgrass; [10]) | Ducksalad plant response rating (duck salad; [11]) | Ducksalad plant response rating (duck salad; [12]) | Ducksalad plant response rating (duck salad; [9]) | Ducksalad plant response rating (duck salad; [10]) | Nutsedge plant response rating (purple nutsedge; [1]) | Nutsedge plant response rating (purple nutsedge; [13]) | Nutsedge plant response rating (purple nutsedge; [2]) | Plant response rating, Nutsedge (purple nutsedge; [14]) | Plant response rating, Nutsedge (purple nutsedge; [15]) | Nutsedge plant response rating (purple nutsedge; [5]) | Nutsedge plant response rating (purple nutsedge; [7]) | Crabgrass plant response rating (crabgrass; [1]) | Crabgrass plant response rating (crabgrass; [13]) | Crabgrass plant response rating (crabgrass; [2]) | Plant response rating, Crabgrass (crabgrass; [14]) | Plant response rating, Crabgrass (crabgrass; [15]) | Crabgrass plant response rating (crabgrass; [5]) | B. signalgrass plant response rating (surinam grass; [8]) | B. signalgrass plant response rating (surinam grass; [13]) | B. signalgrass plant response rating (surinam grass; [2]) | Plant response rating, B. signalgrass (surinam grass; [14]) | Plant response rating, B. signalgrass (surinam grass; [15]) | B. signalgrass plant response rating (surinam grass; [16]) | B. signalgrass plant response rating (surinam grass; Rate 500 g/ha, Postemergence, scale of 0 to 10 where 0 is no effect and 10 is complete control) | Wheat plant response rating (wheat; [1]) | Wheat plant response rating (wheat; [2]) | Wheat plant response rating (0 to 10 scale) (wheat; [3]) | Plant response rating, Wheat (wheat; [4]) | Wheat plant response rating (wheat; [5]) | Plant response rating, Wheat (wheat; [6]) | Wheat plant response rating (wheat; [7]) | Bedstraw plant response rating (bedstraw; [8]) | Bedstraw plant response rating (bedstraw; [13]) | Bedstraw plant response rating (bedstraw; [2]) | Plant response rating, Bedstraw (bedstraw; [14]) | Plant response rating, Bedstraw (bedstraw; [15]) | Bedstraw plant response rating (bedstraw; [16]) | Soybean plant response rating (soybean; [1]) | Soybean plant response rating (soybean; [2]) | Plant response rating, Soybean (soybean; [14]) | Plant response rating, Soybean (soybean; [15]) | Soybean plant response rating (soybean; [5]) | Plant response rating, Soybean (soybean; Rate 250 g/ha, Postemergence, scale 0 to 10, 0 is no effect, 10 is complete control) | Soybean plant response rating (soybean; [7]) | S. Flatsedge plant response rating (smallflower flatsedge; [11]) | S. Flatsedge plant response rating (smallflower flatsedge; [12]) | Plant response rating, S. Flatsedge (smallflower flatsedge; [17]) | S. Flatsedge plant response rating (smallflower flatsedge; [9]) | Velvetleaf plant response rating (velvetleaf; [1]) | Velvetleaf plant response rating (velvetleaf; [2]) | Velvetleaf plant response rating (0 to 10 scale) (velvetleaf; [3]) | Plant response rating, Velvetleaf (velvetleaf; [4]) | Velvetleaf plant response rating (velvetleaf; [5]) | Plant response rating, Velvetleaf (velvetleaf; [6]) | Corn plant response rating (corn; [1]) | Corn plant response rating (corn; [13]) | Corn plant response rating (corn; [2]) | Plant response rating, Corn (corn; [14]) | Plant response rating, Corn (corn; [15]) | Corn plant response rating (corn; [5]) | Blackgrass plant response rating (blackgrass; [1]) | Blackgrass plant response rating (blackgrass; [13]) | Blackgrass plant response rating (blackgrass; [2]) | Plant response rating, Blackgrass (blackgrass; [14]) | Blackgrass plant response rating (blackgrass; [5]) | Blackgrass plant response rating (blackgrass; [7]) | Sugarbeets plant response rating (sugar beet; [1]) | Sugarbeets plant response rating (sugar beet; [2]) | Sugarbeets plant response rating (0 to 10 scale) (sugar beet; [3]) | Plant response rating, Sugarbeets (sugar beet; [4]) | Sugarbeets plant response rating (sugar beet; [5]) | Plant response rating, Sugarbeets (sugar beet; [6]) | Sugarbeets plant response rating (sugar beet; [7]) | Rape plant response rating (rape; [1]) | Rape plant response rating (rape; [13]) | Rape plant response rating (rape; [2]) | Plant response rating, Rape (rape; [14]) | Plant response rating, Rape (rape; [15]) | Rape plant response rating (rape; [5]) | Rape plant response rating (rape; [7]) | Rice plant response rating (rice; [11]) | Rice plant response rating (rice; [12]) | Plant response rating, Rice (rice; [17]) | Rice plant response rating (rice; [9]) | Cocklebur plant response rating (cocklebur; [1]) | Cocklebur plant response rating (cocklebur; [13]) | Cocklebur plant response rating (cocklebur; [2]) | Plant response rating, Cocklebur (cocklebur; [14]) | Plant response rating, Cocklebur (cocklebur; [15]) | Cocklebur plant response rating (cocklebur; [5]) | Cocklebur plant response rating (cocklebur; [7])
